According to US20030082511A1, “Identification of modulatory molecules using inducible promoters” (priority 2001, published 2003):

Key:
[1] = biological target: T1, mouse potassium voltage-gated channel KCNC1 (Mus musculus, UniProt P15388); assay: Membrane potential assay (Disbac5Me4/Disbac3Me4 fluorescence) in tetracycline-inducible KCNC1 TREX/CHO cells; format: cell-based; conditions: for response to KCl addition / depolarization with KCl (membrane potential dye fluorescence): induced KCNC1 CHO cells pre-incubated with BaCl2 30 mM at least 30 minutes; for depolarization (change in fluorescence intensity of the indicator dye) on addition of potassium chloride: KCl added in 50 mM steps, induced vs non-induced KCNC1 CHO cells, FIG. 4
T1 construct: The 2 kb KCNC1 gene fragment and the pcDNA4/Tob vector were gel purified, ligated; host or cells: T-REx CHO cells
T1 sequence (P15388 1-585 isoform P15388-3): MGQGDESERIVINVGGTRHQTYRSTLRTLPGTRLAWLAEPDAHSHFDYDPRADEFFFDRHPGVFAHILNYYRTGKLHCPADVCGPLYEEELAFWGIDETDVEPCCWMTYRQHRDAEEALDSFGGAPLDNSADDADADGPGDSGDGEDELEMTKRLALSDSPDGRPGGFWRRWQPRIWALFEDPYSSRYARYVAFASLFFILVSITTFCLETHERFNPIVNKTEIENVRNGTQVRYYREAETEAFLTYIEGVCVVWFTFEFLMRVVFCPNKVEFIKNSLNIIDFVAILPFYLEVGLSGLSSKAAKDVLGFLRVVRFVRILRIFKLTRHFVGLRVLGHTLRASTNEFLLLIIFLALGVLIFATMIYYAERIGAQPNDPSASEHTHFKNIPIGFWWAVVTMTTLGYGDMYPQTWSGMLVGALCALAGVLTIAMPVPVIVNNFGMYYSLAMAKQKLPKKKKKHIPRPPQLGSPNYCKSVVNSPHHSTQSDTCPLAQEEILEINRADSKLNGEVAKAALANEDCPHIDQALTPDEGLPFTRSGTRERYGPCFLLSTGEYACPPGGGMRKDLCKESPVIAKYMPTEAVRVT
Description: In this example, fluorescent dyes are used to assay for changes in membrane potential, essentially as described in Example 4.
A KCNC1 positive TREX/CHO clone was plated at 3×10^6 cells in replicate 10 cm tissue culture dishes. After 24 hours one dish was treated with 10 μg/mL deoxycycline to induce KCNC1 expression. After a 24 hour induction period, both induced and uninduced cells were harvested with trypsin, counted, and adjusted to equal cell densities in hybridoma media (Sigma, St. Louis, Mo.). A solution of 3.3×10^5 cells and 0.4 μM of each Disbac5Me4 and Disbac3Me4 in hybridoma media was stirred in a cuvette in a JY-Fluormax-2 fluorometer (JY, Edison N.J.). Fluorescence intensity from 540 nm excitation and 690 nm emission was measured over time. The extracellular potassium chloride level was adjusted to 50 mM, 10 mM, and 150 mM with 3 N KCl at the indicated times. Each cell population was tested in triplicate and the mean and standard error (SE) were determined.
4-aminopyridine is a known specific inhibitor of Kv3.1b (Grissmer et al., Molec. Pharmacol. 45:1227-1234, 1994; Kirsch and Drewe, Jour. Gen. Physiol. 102:797-816, 1993; Grissmer et al. Jour. Biol. Chem. 267:20971-20979, 1992), the human homologue of KCNC1. […] Pre-incubation with 30 mM KCl had no effect, ruling out the possibility that effects of BaCl2 resulted from simply changing the ionic strength of the extracellular medium (data not shown). Each cell population was tested in triplicate. The mean and SE are shown in the FIG. 5 (aminopyridine) and FIG. 6 (BaCl2).

[2] = biological target: T2, HERG potassium ion channel (Homo sapiens, UniProt Q12809); assay: Membrane potential assay (Disbac5Me4/Disbac3Me4 fluorescence) in inducible HERG TREX/CHO clone 5J; format: cell-based; conditions: FIG. 8
T2 construct: expressed in transfected cells; host or cells: T-REx CHO cells, clone 5J
T2 sequence (Q12809 whole entry): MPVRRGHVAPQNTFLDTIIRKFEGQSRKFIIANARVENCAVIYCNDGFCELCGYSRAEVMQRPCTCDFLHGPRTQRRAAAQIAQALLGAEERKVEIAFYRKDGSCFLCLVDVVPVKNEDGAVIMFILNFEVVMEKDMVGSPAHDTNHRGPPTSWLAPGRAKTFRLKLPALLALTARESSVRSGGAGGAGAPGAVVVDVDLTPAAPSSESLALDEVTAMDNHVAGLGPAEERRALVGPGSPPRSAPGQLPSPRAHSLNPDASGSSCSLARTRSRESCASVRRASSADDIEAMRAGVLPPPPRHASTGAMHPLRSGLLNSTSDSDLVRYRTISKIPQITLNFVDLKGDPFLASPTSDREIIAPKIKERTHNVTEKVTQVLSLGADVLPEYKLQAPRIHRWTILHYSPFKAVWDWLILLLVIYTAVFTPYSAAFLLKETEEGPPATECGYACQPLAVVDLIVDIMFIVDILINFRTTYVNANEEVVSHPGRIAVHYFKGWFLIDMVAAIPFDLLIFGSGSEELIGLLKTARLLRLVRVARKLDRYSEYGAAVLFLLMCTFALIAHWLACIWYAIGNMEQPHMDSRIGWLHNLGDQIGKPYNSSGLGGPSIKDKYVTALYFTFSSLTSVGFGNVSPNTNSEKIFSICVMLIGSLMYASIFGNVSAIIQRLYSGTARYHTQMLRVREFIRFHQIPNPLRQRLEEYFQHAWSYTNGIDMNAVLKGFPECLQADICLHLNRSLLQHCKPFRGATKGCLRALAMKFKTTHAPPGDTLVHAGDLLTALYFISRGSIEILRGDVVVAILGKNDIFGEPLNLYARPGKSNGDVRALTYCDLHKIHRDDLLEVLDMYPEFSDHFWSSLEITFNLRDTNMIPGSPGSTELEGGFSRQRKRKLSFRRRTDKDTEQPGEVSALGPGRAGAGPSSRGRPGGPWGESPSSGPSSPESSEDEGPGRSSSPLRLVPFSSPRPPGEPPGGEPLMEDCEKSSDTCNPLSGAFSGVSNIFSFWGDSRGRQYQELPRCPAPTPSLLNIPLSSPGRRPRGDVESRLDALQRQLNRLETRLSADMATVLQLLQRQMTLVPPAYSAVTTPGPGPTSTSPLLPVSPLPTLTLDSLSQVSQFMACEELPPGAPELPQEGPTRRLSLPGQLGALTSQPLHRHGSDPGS
Description: The HERG positive TREX/CHO clone 5J was plated at 3×10^6 cells in replicate 10 cm tissue culture dishes. After 24 hours one dish was treated with […] doxycycline to induce HERG expression. After 24 hours induction, both induced and uninduced cells were harvested with trypsin, counted and adjusted to the same cell density in hybridoma media (Sigma). A solution of 1×10^5 cells/ml and 0.4 μM each Disbac5Me4 and Disbac3Me4 in hybridoma media was stirred in a cuvette in a JY-Spex fluorometer. Fluorescence intensity from 540 excitation and 690 emission was followed over time. The extracellular potassium chloride was adjusted to 100 mM with 3N KCl at the indicated time. 25 nM pimozide was then added at the indicated time.

Q: What does the source list for `Nc1ccncc1` [4-aminopyridine]?
A: response to KCl addition (membrane potential dye fluorescence) ([1]; induced KCNC1 CHO cells pre-incubated with 4-aminopyridine 900 μM at least 30 minutes, FIG. 5): lessened the response to KCl addition; characteristics of cells induced to overexpress KCNC1 compared with uninduced cells ([1]; pre-incubated with 4-aminopyridine (900 μM), FIG. 5): show characteristics more similar to uninduced cells

Q: With `[Ba+2].[Cl-].[Cl-]` [BaCl2] as the molecule, how does the resting potential ([1]; KCNC1 CHO cells pre-incubated with BaCl2 30 mM at least 30 minutes, FIG. 6) read?
A: less polarized resting potential

Q: What about the “response to KCl addition / depolarization with KCl (membrane potential dye fluorescence)” value ([1]; FIG. 6) of the same molecule?
A: ameliorated the response to KCl addition

Q: And the “response to KCl addition / depolarization with KCl (membrane potential dye fluorescence)” value ([1]; FIG. 6, listed as BaCI2)?
A: decreased response to depolarization with KCl

Q: What about the “characteristics of cells induced to overexpress KCNC1 compared with uninduced cells” value ([1]; pre-incubated with BaCl2 (30 mM), FIG. 6) of the same molecule?
A: show characteristics more similar to uninduced cells

Q: What does the source list for `[Cl-].[K+]` [KCl, potassium chloride]?
A: depolarization (change in fluorescence intensity of the indicator dye) on addition of potassium chloride [1]: show a response; depolarization (change in fluorescence intensity of the indicator dye) on addition of potassium chloride ([1]; listed as potassium chloride): depolarization of the an induced population of cells in comparison to a non-induced cell population; effect of pre-incubation on membrane potential response (ionic strength control) ([1]; pre-incubation with 30 mM KCl, data not shown): no effect; depolarization on addition of potassium chloride ([2]; 100 mM KCl, induced HERG expressing vs uninduced cells): depolarizes the HERG expressing cells to a greater extent than the uninduced cells

Q: How did the “sensitivity of membrane potential to pimozide” value ([2]; 25 nM pimozide added after 100 mM KCl, induced vs uninduced cells) turn out when `O=c1[nH]c2ccccc2n1C1CCN(CCCC(c2ccc(F)cc2)c2ccc(F)cc2)CC1` [pimozide] was run?
A: more sensitive
